Laboratory results as given in ChEMBL document CHEMBL1201862, “PubChem BioAssay data set” (2004).
Active and inactive are the calls of the source.

target: T1, Ubiquitin-conjugating enzyme E2 N (Homo sapiens, UniProt P61088); test: not given; type: functional;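 also: Dose-response confirmation in a TR-FRET assay detecting UBC13-driven polyubiquitin chain formation, inhibition measured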
T1 sequence (P61088 whole entry): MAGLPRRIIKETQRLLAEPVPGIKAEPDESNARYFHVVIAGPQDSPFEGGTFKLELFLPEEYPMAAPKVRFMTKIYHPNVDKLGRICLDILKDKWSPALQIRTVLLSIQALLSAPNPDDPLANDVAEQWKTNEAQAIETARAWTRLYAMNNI

Q: For `N#Cc1ccsc1NC(=O)C1CCN(C(=O)c2ccc(F)cc2)CC1`, which IC50 is on record?
A: > 20 µM (inactive)

Q: With `FC(F)(F)c1cc(CCN2CCNC[C@@H]2c2ccccc2)cc(C(F)(F)F)c1` as the molecule, how does the IC50 read?
A: > 20 µM (inactive)

tested on: not listed separately; test: cells; type: functional, cell-based

Q: With `COc1ccc(C)cc1NC(=O)c1ccc(N(C)S(C)(=O)=O)cc1` as the molecule, how does the EC50 read?
A: > 350 µM (not active)

Q: For `CCOc1ccccc1NC(=O)COc1ccc2c(c1)OCO2`, which EC50 is on record?
A: > 350 µM (not active)

Q: With `C1CC1Cc1noc(CN2CCN(CC3CC3)CC2)n1` as the molecule, how does the EC50 read?
A: > 350 µM (not active)

Q: For `O=C(NCC1CCCO1)c1sc2cc(Cl)ccc2c1Cl` (stereo not given), which EC50 is on record?
A: > 350 µM (not active)

Q: For `Cc1cccc(NC(=O)Cc2noc3ccccc23)c1`, which EC50 is on record?
A: > 350 µM (not active)

Q: For `CCOC(=O)CN1C(=N)N(c2nc(NC(C)C)nc(NC(C)C)n2)CC1=O`, which EC50 is on record?
A: > 350 µM (not active)

Q: For `Cc1ccc(-c2nc(CS(=O)(=O)CC(=O)NC3CCC(C)CC3)c(C)o2)cc1` (stereo not given), which EC50 is on record?
A: > 350 µM (not active)

tested on: not listed separately; test: cells; type: functional, cell-based; remark: another data set of the same source

Q: Which EC50 does the source give for `COc1ccc(C)cc1NC(=O)c1ccc(N(C)S(C)(=O)=O)cc1` here?
A: > 350 µM (not active)

Q: Which EC50 does the source give for `CCOc1ccccc1NC(=O)COc1ccc2c(c1)OCO2` here?
A: > 350 µM (not active)

Q: Which EC50 does the source give for `C1CC1Cc1noc(CN2CCN(CC3CC3)CC2)n1` here?
A: > 350 µM (not active)

Q: For `O=C(NCC1CCCO1)c1sc2cc(Cl)ccc2c1Cl` (stereo not given), which EC50 is on record?
A: 66.4 µM (active)

Q: Which EC50 does the source give for `Cc1cccc(NC(=O)Cc2noc3ccccc23)c1` here?
A: 115 µM (active)

Q: Which EC50 does the source give for `CCOC(=O)CN1C(=N)N(c2nc(NC(C)C)nc(NC(C)C)n2)CC1=O` here?
A: > 350 µM (not active)

Q: With `Cc1ccc(-c2nc(CS(=O)(=O)CC(=O)NC3CCC(C)CC3)c(C)o2)cc1` (stereo not given) as the molecule, how does the EC50 read?
A: > 350 µM (not active)

tested on: not listed separately; test: intracellular Trypanosoma cruzi inhibitors in host cells – cell-based, plate reader, cherry-pick samples, set 3, dose response (AID 651818); type: functional;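 also: compounds incubated with infected cells for about four days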

Q: With `C[C@H](CO)N1C[C@H](C)[C@@H](CN(C)Cc2ccc(C(=O)Nc3ccccc3N)cc2)Oc2c(NC(=O)c3cnccn3)cccc2C1=O` as the molecule, how does the AC50 read?
A: 2.45 µM (active)

Q: With `C[C@H](CO)N1C[C@H](C)[C@H](CN(C)C(=O)Nc2ccc(C(F)(F)F)cc2)Oc2c(NC(=O)c3nc4ccccc4s3)cccc2C1=O` as the molecule, how does the AC50 read?
A: 2.35 µM (active)

Q: Which AC50 does the source give for `Cc1ccc(S(=O)(=O)Nc2ccc3c(c2)C(=O)N([C@H](C)CO)C[C@H](C)[C@H](CN(C)Cc2ccc(C(F)(F)F)cc2)OCCCC[C@@H](C)O3)cc1` here?
A: 3.01 µM (active)

Q: Which AC50 does the source give for `C[C@H](CO)N1C[C@H](C)[C@@H](CN(C)Cc2ccc(C(F)(F)F)cc2)Oc2c(NC(=O)Nc3ccc(F)cc3)cccc2C1=O` here?
A: 5.99 µM (active)

Q: With `C[C@H](CO)N1C[C@H](C)[C@H](CN(C)Cc2ccc3c(c2)OCO3)Oc2c(NC(=O)Nc3ccc(C(F)(F)F)cc3)cccc2C1=O` as the molecule, how does the AC50 read?
A: 0.956 µM (active)

Q: With `C[C@@H]1CN([C@H](C)CO)C(=O)c2cccc(NS(=O)(=O)c3ccc(Cl)cc3)c2O[C@@H]1CN(C)Cc1ccccc1` as the molecule, how does the AC50 read?
A: 20 µM (inactive)

Q: For `COc1ccc(S(=O)(=O)Nc2ccc3c(c2)CC(=O)N([C@H](C)CO)C[C@@H](C)[C@H](CN(C)CC2CCCCC2)O3)cc1`, which AC50 is on record?
A: 2.97 µM (active)

Q: For `C[C@@H]1CN([C@@H](C)CO)C(=O)c2cccc(NC(=O)CCCCCC(=O)Nc3ccccc3N)c2O[C@@H]1CN(C)Cc1ccc(Cl)c(Cl)c1`, which AC50 is on record?
A: 2.51 µM (active)

tested on: not listed separately; test: off-target signal loss in HeLa-CEM21 co-culture – HeLa F-luc CTL cells, cherry-picked, counter-screen for HIV-1 Env fusion inhibitor project, dose response (AID 652040); type: functional, cell-based;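 also: potency for signal decrease marking cytotoxic or nonspecific inhibition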

Q: With `Cc1onc(-c2ccccc2)c1C(=O)OCCOc1cccc(Cl)c1` as the molecule, how does the AC50 read?
A: > 70 µM (inactive)
